Assay results as given in ChEMBL document CHEMBL5537128, “Discovery of LWY713 as a potent and selective FLT3 PROTAC degrader with in vivo activity against acute myeloid leukemia” (Eur J Med Chem, 2024).
Blank lines part the entries; values can stand above or below the molecule they belong to. The source made the active and inactive calls. The rule behind the calls is not given here.

Tests used:
[1] = biological target: T1, Protein cereblon/Receptor-type tyrosine-protein kinase FLT3 (Homo sapiens, UniProt P36888+Q96SW2); test: PROTAC activity at CRBN/FLT3 in human MV4-11 cells harboring FLT3-ITD mutation assessed as induction of FLT3 degradation at 10 nM incubated for 24 hrs by immunoblotting analysis relative to control; type: cell-based
Target sequence in this assay (P36888 27-993 limits assumed): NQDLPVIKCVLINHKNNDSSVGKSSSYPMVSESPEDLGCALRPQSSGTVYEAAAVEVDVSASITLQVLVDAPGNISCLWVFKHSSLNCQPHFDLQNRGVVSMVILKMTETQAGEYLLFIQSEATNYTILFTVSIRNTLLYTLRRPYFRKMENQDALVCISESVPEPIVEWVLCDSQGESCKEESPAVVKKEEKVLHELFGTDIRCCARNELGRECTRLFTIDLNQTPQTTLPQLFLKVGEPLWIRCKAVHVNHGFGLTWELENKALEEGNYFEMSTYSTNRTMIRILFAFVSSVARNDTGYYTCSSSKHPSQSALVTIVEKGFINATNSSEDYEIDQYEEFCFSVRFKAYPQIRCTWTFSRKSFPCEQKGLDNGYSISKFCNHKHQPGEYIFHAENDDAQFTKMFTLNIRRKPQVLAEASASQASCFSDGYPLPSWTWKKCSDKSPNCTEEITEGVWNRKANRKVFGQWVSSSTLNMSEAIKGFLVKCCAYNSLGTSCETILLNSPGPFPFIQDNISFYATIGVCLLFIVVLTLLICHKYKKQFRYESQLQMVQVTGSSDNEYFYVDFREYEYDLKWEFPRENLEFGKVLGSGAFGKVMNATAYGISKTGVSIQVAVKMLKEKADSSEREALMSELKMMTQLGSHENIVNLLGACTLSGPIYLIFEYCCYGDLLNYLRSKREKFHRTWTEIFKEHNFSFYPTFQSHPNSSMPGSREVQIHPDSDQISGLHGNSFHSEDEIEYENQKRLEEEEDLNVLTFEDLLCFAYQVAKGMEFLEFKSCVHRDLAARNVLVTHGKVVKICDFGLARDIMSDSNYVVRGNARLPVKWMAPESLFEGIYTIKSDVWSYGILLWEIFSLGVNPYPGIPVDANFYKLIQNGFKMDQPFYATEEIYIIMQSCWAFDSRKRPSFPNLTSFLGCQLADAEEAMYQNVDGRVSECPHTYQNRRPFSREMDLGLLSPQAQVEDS
Target sequence in this assay (Q96SW2 whole entry partner): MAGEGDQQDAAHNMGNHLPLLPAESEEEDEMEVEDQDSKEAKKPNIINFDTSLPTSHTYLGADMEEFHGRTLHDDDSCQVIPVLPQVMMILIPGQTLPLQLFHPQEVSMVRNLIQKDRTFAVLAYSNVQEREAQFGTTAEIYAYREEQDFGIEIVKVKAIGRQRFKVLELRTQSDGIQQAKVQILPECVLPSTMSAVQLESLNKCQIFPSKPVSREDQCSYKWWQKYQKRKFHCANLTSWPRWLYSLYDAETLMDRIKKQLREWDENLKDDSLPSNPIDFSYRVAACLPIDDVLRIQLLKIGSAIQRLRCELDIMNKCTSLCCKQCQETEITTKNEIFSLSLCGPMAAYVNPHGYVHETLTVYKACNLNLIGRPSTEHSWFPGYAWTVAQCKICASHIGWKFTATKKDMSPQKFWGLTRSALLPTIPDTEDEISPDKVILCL

[2] = biological target: T1, Protein cereblon/Receptor-type tyrosine-protein kinase FLT3; test: PROTAC activity at CRBN/FLT3 in human MV4-11 cells harboring FLT3-ITD mutation assessed as induction of FLT3 degradation incubated for 24 hrs by immunoblotting analysis; type: cell-based
[3] = biological target: T1, Protein cereblon/Receptor-type tyrosine-protein kinase FLT3; test: PROTAC activity at CRBN/FLT3 in human MV4-11 cells harboring FLT3-ITD mutation assessed as induction of FLT3 degradation by measuring maximal efficacy incubated for 24 hrs by immunoblotting analysis relative to control; type: cell-based
Target sequence in this assay (P36888 27-993 limits assumed): as the sequence (P36888 27-993 limits assumed) above
Target sequence in this assay (Q96SW2 whole entry partner): as the sequence (Q96SW2 whole entry partner) above

MV4-11 [4] = test: Antiproliferative activity against human MV4-11 cells assessed as inhibition of cell proliferation incubated for 72 hrs by CCK8 assay; type: functional, cell-based; conditions: MV4-11, 72 h
MV4-11 [5] = test: Induction of apoptosis in human MV4-11 cells assessed as early apoptotic cells at 2 nM incubated for 48 hrs by Annexin V/7-AAD staining based flow cytometric analysis relative to control; type: functional
MV4-11 [6] = test: Induction of apoptosis in human MV4-11 cells assessed as late apoptotic cells at 2 nM incubated for 48 hrs by Annexin V/7-AAD staining based flow cytometric analysis relative to control; type: functional
MV4-11 [7] = test: Induction of apoptosis in human MV4-11 cells assessed as early apoptotic cells at 10 nM incubated for 48 hrs by Annexin V/7-AAD staining based flow cytometric analysis relative to control; type: functional
MV4-11 [8] = test: Induction of apoptosis in human MV4-11 cells assessed as late apoptotic cells at 10 nM incubated for 48 hrs by Annexin V/7-AAD staining based flow cytometric analysis relative to control; type: functional
MV4-11 [9] = test: Induction of apoptosis in human MV4-11 cells assessed as necrotic cells at 10 nM incubated for 48 hrs by Annexin V/7-AAD staining based flow cytometric analysis relative to control; type: functional
MV4-11 [10] = test: Induction of cell cycle arrest at G0/G1 phase in human MV4-11 cells assessed as sub-G0/G1 phase cells at 0.4 nM incubated for 24 hrs by PI staining based flow cytometric analysis relative to control; type: functional
MV4-11 [11] = test: Induction of cell cycle arrest at G0/G1 phase in human MV4-11 cells assessed as G0/G1 phase cells at 0.4 nM incubated for 24 hrs by PI staining based flow cytometric analysis relative to control; type: functional
MV4-11 [12] = test: Induction of cell cycle arrest at G0/G1 phase in human MV4-11 cells assessed as S phase cells at 0.4 nM incubated for 24 hrs by PI staining based flow cytometric analysis relative to control; type: functional
MV4-11 [13] = test: Induction of cell cycle arrest at G0/G1 phase in human MV4-11 cells assessed as G2/M phase cells at 0.4 nM incubated for 24 hrs by PI staining based flow cytometric analysis relative to control; type: functional
MV4-11 [14] = test: Induction of cell cycle arrest at G0/G1 phase in human MV4-11 cells assessed as sub-G0/G1 phase cells at 2 nM incubated for 24 hrs by PI staining based flow cytometric analysis relative to control; type: functional
MV4-11 [15] = test: Induction of cell cycle arrest at G0/G1 phase in human MV4-11 cells assessed as G0/G1 phase cells at 2 nM incubated for 24 hrs by PI staining based flow cytometric analysis relative to control; type: functional
MV4-11 [16] = test: Induction of cell cycle arrest at G0/G1 phase in human MV4-11 cells assessed as S phase cells at 2 nM incubated for 24 hrs by PI staining based flow cytometric analysis relative to control; type: functional
MV4-11 [17] = test: Induction of cell cycle arrest at G0/G1 phase in human MV4-11 cells assessed as G2/M phase cells at 2 nM incubated for 24 hrs by PI staining based flow cytometric analysis relative to control; type: functional
MV4-11 [18] = test: Inhibition of PI3K/AKT signaling pathway in human MV4-11 cells assessed as reduction in phosphorylated AKT level at 0.08 to 50 nM incubated for 24 hrs by immunoblotting analysis; type: cell-based; conditions: dose 0.08-50 nM
MV4-11 [19] = test: Antitumor activity against human MV4-11 cells xenografted in NOD/SCID mouse assessed as reduction in tumor volume at 6 mg/kg, po administered once a day for 21 days; type: functional, organism-based; conditions: time 21.0 day

SMILES: CCc1nc(C(N)=O)c(Nc2ccc(N3CCC(N4CCN(C(=O)CCCCCCCCCOc5cccc6c5C(=O)N(C5CCC(=O)NC5=O)C6=O)CC4)CC3)c(OC)c2)nc1NC1CCOCC1 (configuration not stated)
Activity [1]: 0%

SMILES: CCc1nc(C(N)=O)c(Nc2ccc(N3CCC(N4CCN(C(=O)CCCCCNc5cccc6c5C(=O)N(C5CCC(=O)NC5=O)C6=O)CC4)CC3)c(OC)c2)nc1NC1CCOCC1 (configuration not stated)
Activity [1]: 66%
DC50 [2]: 2.26 nM
Emax [3]: 77.2%

SMILES: CCc1nc(C(N)=O)c(Nc2ccc(N3CCC(N4CCN(C(=O)CCCCCCCNc5cccc6c5C(=O)N(C5CCC(=O)NC5=O)C6=O)CC4)CC3)c(OC)c2)nc1NC1CCOCC1 (configuration not stated)
Activity [1]: 50%

SMILES: CCc1nc(C(N)=O)c(Nc2ccc(N3CCC(N4CCN(C(=O)COc5cccc6c5C(=O)N(C5CCC(=O)NC5=O)C6=O)CC4)CC3)c(OC)c2)nc1NC1CCOCC1 (configuration not stated)
Activity [1]: 58%
DC50 [2]: 1.26 nM
Emax [3]: 86.8%

SMILES: CCc1nc(C(N)=O)c(Nc2ccc(N3CCC(N4CCN(C(=O)CCCOc5ccc6c(c5)C(=O)N(C5CCC(=O)NC5=O)C6=O)CC4)CC3)c(OC)c2)nc1NC1CCOCC1 (configuration not stated)
Activity [1]: 0%

SMILES: CCc1nc(C(N)=O)c(Nc2ccc(N3CCC(N4CCN(C(=O)CCCNc5ccc6c(c5)C(=O)N(C5CCC(=O)NC5=O)C6=O)CC4)CC3)c(OC)c2)nc1NC1CCOCC1 (configuration not stated)
Activity [1]: 9%

SMILES: CCc1nc(C(N)=O)c(Nc2ccc(N3CCC(N4CCN(c5ccc6c(c5)C(=O)N(C5CCC(=O)NC5=O)C6=O)CC4)CC3)c(OC)c2)nc1NC1CCOCC1 (configuration not stated)
Activity [1]: 0%

SMILES: CCc1nc(C(N)=O)c(Nc2ccc(N3CCC(N4CCN(C(=O)COc5ccc6c(c5)C(=O)N(C5CCC(=O)NC5=O)C6=O)CC4)CC3)c(OC)c2)nc1NC1CCOCC1 (configuration not stated)
Activity [1]: 0%

SMILES: CCc1nc(C(N)=O)c(Nc2ccc(N3CCC(N4CCN(C(=O)CCCCCOc5cccc6c5C(=O)N(C5CCC(=O)NC5=O)C6=O)CC4)CC3)c(OC)c2)nc1NC1CCOCC1 (configuration not stated)
Activity [1]: 36%

SMILES: CCc1nc(C(N)=O)c(Nc2ccc(N3CCC(N4CCN(C(=O)CCCCCNc5ccc6c(c5)C(=O)N(C5CCC(=O)NC5=O)C6=O)CC4)CC3)c(OC)c2)nc1NC1CCOCC1 (configuration not stated)
Activity [1]: 52%

SMILES: CCc1nc(C(N)=O)c(Nc2ccc(N3CCC(N4CCN(c5cccc6c5C(=O)N(C5CCC(=O)NC5=O)C6=O)CC4)CC3)c(OC)c2)nc1NC1CCOCC1 (configuration not stated)
Activity [1]: 0%

SMILES: CCc1nc(C(N)=O)c(Nc2ccc(N3CCC(N4CCN(C(=O)CCCCCCCOc5cccc6c5C(=O)N(C5CCC(=O)NC5=O)C6=O)CC4)CC3)c(OC)c2)nc1NC1CCOCC1 (configuration not stated)
Activity [1]: 29%

SMILES: CCc1nc(C(N)=O)c(Nc2ccc(N3CCC(N4CCN(C(=O)COc5cccc6c5C(=O)N(C5CCC(=O)NC5=O)C6)CC4)CC3)c(OC)c2)nc1NC1CCOCC1 (configuration not stated)
DC50 [2]: 1.01 nM

SMILES: CCc1nc(C(N)=O)c(Nc2ccc(N3CCC(N4CCN(C(=O)CCCCCCCCCNc5cccc6c5C(=O)N(C5CCC(=O)NC5=O)C6=O)CC4)CC3)c(OC)c2)nc1NC1CCOCC1 (configuration not stated)
Activity [1]: 0%

SMILES: CCc1nc(C(N)=O)c(Nc2ccc(N3CCC(N4CCN(C(=O)CCCCCCCOc5ccc6c(c5)C(=O)N(C5CCC(=O)NC5=O)C6=O)CC4)CC3)c(OC)c2)nc1NC1CCOCC1 (configuration not stated)
Activity [1]: 6%

IC50 (MV4-11 [4]): 6.89 nM
SMILES: CCc1nc(C(N)=O)c(Nc2ccc(N3CCC(N4CCN(C)CC4)CC3)c(OC)c2)nc1NC1CCOCC1 [GILTERITINIB]
Activity (MV4-11 [5]): 3%
Activity (MV4-11 [6]): 6.8%
Activity (MV4-11 [7]): 5.5%
Activity (MV4-11 [8]): 19.6%
Activity (MV4-11 [9]): 2.3%
Activity (MV4-11 [10]): 1.6%
Activity (MV4-11 [11]): 66.3%
Activity (MV4-11 [12]): 10.4%
Activity (MV4-11 [13]): 21.5%
Activity (MV4-11 [14]): 1.9%
Activity (MV4-11 [15]): 72.4%
Activity (MV4-11 [16]): 6.9%
Activity (MV4-11 [17]): 18.5%
inhibition (MV4-11 [18]): inactive
Activity (MV4-11 [19]): Active

SMILES: CCc1nc(C(N)=O)c(Nc2ccc(N3CCC(N4CCN(C(=O)CCCNc5cccc6c5C(=O)N(C5CCC(=O)NC5=O)C6=O)CC4)CC3)c(OC)c2)nc1NC1CCOCC1 (configuration not stated)
Activity [1]: 34%

SMILES: CCc1nc(C(N)=O)c(Nc2ccc(N3CCC(N4CCN(C(=O)COc5cccc6c5CN(C5CCC(=O)N(C)C5=O)C6=O)CC4)CC3)c(OC)c2)nc1NC1CCOCC1 (configuration not stated)
DC50 [2]: > 1000 nM
IC50 (MV4-11 [4]): 22.9 nM

SMILES: CCc1nc(C(N)=O)c(Nc2ccc(N3CCC(N4CCN(C(=O)CCCCCCCNc5ccc6c(c5)C(=O)N(C5CCC(=O)NC5=O)C6=O)CC4)CC3)c(OC)c2)nc1NC1CCOCC1 (configuration not stated)
Activity [1]: 40%

SMILES: CCc1nc(C(N)=O)c(Nc2ccc(N3CCC(N4CCN(C(=O)CCCCCCCCCNc5ccc6c(c5)C(=O)N(C5CCC(=O)NC5=O)C6=O)CC4)CC3)c(OC)c2)nc1NC1CCOCC1 (configuration not stated)
Activity [1]: 0%

SMILES: CCc1nc(C(N)=O)c(Nc2ccc(N3CCC(N4CCN(C(=O)CNc5ccc6c(c5)C(=O)N(C5CCC(=O)NC5=O)C6=O)CC4)CC3)c(OC)c2)nc1NC1CCOCC1 (configuration not stated)
Activity [1]: 52%

SMILES: CCc1nc(C(N)=O)c(Nc2ccc(N3CCC(N4CCN(C(=O)CCCCCOc5ccc6c(c5)C(=O)N(C5CCC(=O)NC5=O)C6=O)CC4)CC3)c(OC)c2)nc1NC1CCOCC1 (configuration not stated)
Activity [1]: 32%

SMILES: CCc1nc(C(N)=O)c(Nc2ccc(N3CCC(N4CCN(C(=O)CCCOc5cccc6c5C(=O)N(C5CCC(=O)NC5=O)C6=O)CC4)CC3)c(OC)c2)nc1NC1CCOCC1 (configuration not stated)
Activity [1]: 30%

SMILES: CCc1nc(C(N)=O)c(Nc2ccc(N3CCC(N4CCN(C(=O)CCCCCCCCCOc5ccc6c(c5)C(=O)N(C5CCC(=O)NC5=O)C6=O)CC4)CC3)c(OC)c2)nc1NC1CCOCC1 (configuration not stated)
Activity [1]: 0%

SMILES: CCc1nc(C(N)=O)c(Nc2ccc(N3CCC(N4CCN(C(=O)CNc5cccc6c5C(=O)N(C5CCC(=O)NC5=O)C6=O)CC4)CC3)c(OC)c2)nc1NC1CCOCC1 (configuration not stated)
Activity [1]: 60%
DC50 [2]: 0.98 nM
Emax [3]: 85%
